# Assay results published in patent US7897643B2, “Biphenyl carboxylic acids and derivatives thereof” (Janssen Pharmaceutica N.V., priority 2007, dated 2011).
# Where two headings read alike, the source gives them in different places.
# What was measured:
# Cyclooxygenase-1 (Cox-1) = target: T1, Cyclooxygenase-1 (Cox-1) (Ovis aries, UniProt P05979); test: Colorimetric Cox inhibitor screening assay (Cayman), Cox-1; type: biochemical
# T1 construct: purchased Cayman Chemical Company 760111
# T1 sequence (P05979 25-600): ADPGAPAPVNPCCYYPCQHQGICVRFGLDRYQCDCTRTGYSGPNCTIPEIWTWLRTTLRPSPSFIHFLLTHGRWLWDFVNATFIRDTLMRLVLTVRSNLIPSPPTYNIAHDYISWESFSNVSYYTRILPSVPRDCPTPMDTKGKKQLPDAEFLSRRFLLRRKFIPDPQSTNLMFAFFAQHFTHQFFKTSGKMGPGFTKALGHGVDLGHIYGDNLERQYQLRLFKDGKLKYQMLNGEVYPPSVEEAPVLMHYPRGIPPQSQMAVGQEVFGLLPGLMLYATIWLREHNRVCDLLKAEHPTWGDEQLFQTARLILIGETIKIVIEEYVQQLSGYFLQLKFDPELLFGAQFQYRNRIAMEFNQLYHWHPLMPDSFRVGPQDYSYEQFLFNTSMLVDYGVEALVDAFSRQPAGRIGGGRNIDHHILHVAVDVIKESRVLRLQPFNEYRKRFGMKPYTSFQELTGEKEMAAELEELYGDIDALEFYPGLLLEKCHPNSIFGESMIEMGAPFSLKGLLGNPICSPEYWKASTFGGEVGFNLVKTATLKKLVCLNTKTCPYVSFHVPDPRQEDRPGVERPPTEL
# Method: (§1) Determination of the Effect of the Compounds According to the Invention on Cyclooxygenase-1 and Cyclooxygenase-2 (Cox-1, Cox-2)
# (§2) Inhibition of Cox-1 and Cox-2 was determined using the Colorimetric Cox inhibitor screening assay provided by Cayman Chemical Company, Ann Arbor, Mich., USA. (Cat. No. 760111) according to manufacturer's instructions.
# Cyclooxygenase-2 (Cox-2) = target: T2, Cyclooxygenase-2 (Cox-2) (Ovis aries, UniProt P79208); test: Colorimetric Cox inhibitor screening assay (Cayman), Cox-2; type: biochemical
# T2 construct: purchased Cayman Chemical Company 760111
# T2 sequence (P79208 17-603): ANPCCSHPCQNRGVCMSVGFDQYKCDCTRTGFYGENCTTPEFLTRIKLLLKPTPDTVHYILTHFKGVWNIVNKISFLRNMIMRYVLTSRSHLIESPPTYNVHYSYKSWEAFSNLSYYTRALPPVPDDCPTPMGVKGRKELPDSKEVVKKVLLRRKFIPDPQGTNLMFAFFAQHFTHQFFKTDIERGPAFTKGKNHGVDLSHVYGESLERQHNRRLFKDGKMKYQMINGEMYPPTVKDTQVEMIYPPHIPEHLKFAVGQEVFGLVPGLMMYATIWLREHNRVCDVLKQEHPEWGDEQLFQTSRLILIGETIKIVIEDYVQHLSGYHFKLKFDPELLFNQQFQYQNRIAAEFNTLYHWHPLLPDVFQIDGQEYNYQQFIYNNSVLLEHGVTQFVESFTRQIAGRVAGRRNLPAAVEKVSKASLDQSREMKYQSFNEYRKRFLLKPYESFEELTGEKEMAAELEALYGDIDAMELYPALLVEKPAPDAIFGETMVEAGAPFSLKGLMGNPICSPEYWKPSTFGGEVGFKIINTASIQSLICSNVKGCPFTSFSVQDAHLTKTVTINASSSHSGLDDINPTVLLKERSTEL
# Method: as §1, §2
# γ-secretase = target: T3, γ-secretase (Homo sapiens, UniProt P49768); test: WTAPP cell assay Aβ42 (γ-secretase-modulating activity, SKNBE2 cells carrying APP 695 wild type); type: cell-based; details: for EC50: SKNBE2 cells carrying APP 695 wild type
# T3 construct: endogenous in cells; host or cells: SKNBE2 cells carrying APP 695 wild type
# Method: Screening of the Compounds of the Invention for γ-Secretase-Modulating Activity
# Screening was carried out using SKNBE2 cells carrying the APP 695-wild type, grown in DMEM/NUT-mix F12 (HAM) provided by Gibco (cat no. 31330-38) containing 5% Serum/Fe supplemented with 1% non-essential amino acids.
# Cells were grown to near confluency.
# The screening was performed using the assay as described in Citron et al (1997) Nature Medicine 3: 67.
# Aβ42 = test: In vivo mouse Aβ42 lowering (brain Aβ42 ELISA); details: oral dose 30 mg/kg, 4 hr time point
# From the text: To determine whether acute administration of an Aβ42 lowering agent would reduce Aβ42 levels in vivo, non-transgenic rodents, e.g. mice or rats were used. Alternatively, two to three month old Tg2576 mice expressing APP695 containing the “Swedish” variant can be used or a transgenic mouse model developed by Dr. Fred Van Leuven (K. U. Leuven, Belgium) and co-workers, with neuron-specific expression of a clinical mutant of the human amyloid precursor protein [V717I] (Moechars et al., 1999 J. Biol. Chem. 274, 6483). Young transgenic mice have high levels of Aβ in the brain but no detectable Aβ deposition. At approximately 6-8 months of age , the transgenic mice start to display spontaneous, progressive accumulation of β-amyloid (Aβ) in the brain, eventually resulting in amyloid plaques within the subiculum, hippocampus and cortex. Animals treated with the Aβ42 lowering agent will be examined and compared to those untreated or treated with vehicle and brain levels of soluble Aβ42 and total Aβ would be quantitated by standard techniques, for example, using ELISA. Treatment periods may vary from hours to days and will be adjusted based on the results of the Aβ42 lowering once a time course of onset of effect can be established.
# (§3) A typical protocol for measuring Aβ42 lowering in vivo is shown but it is only one of many variations that could be used to optimize the levels of detectable Aβ. For example, Aβ42 lowering compounds as free acids or sodium salts were formulated in 5% of solutol in water or 20% hydroxypropyl β cyclodextrin. The Aβ42 lowering agents are administered as a single oral dose or by any acceptable route of administration e.g., three to four hours before sacrifice, determined empirically, and analysis or alternatively could be given over a course of days and the animals sacrificed three to four hours after the final dose is given.
# (§4) The mice are anaesthetized with a mixture of Ketalar (Ketamin), Rompun (Xylazin 2%) and Atropin (2:1:1) and flushed trans-cardially with physiological serum at 4° C. Blood is collected at sacrifice. The blood collection is performed via a heart puncture during anesthesia in EDTA treated collection tubes. Blood is centrifuged at 4000 g for 5 minutes at 4° C. and the plasma recovered and flash frozen for later analysis. The brain is removed from the cranium and hindbrain and forebrain are separated with a cut in the coronal/frontal plane. The cerebellum is removed and retained for quantitative analysis of test compound levels. The forebrain is divided evenly into left and right hemisphere by using a midline sagital cut.
# Both hemispheres are immediately immersed in liquid nitrogen and stored at −70° C. until homogenization for biochemical assays. […]
# [1] = Brain and plasma compound concentration in mouse after oral dose; type: in vivo; details: 30 mg/kg, 30 mpk po
# Method: as §3, §4
# Oral dose 30 mg/kg at 4 hr Time Point
# [2] = brain, read-out: Brain concentration @ 30 mpk po (4 hr)
# [3] = plasma, read-out: Plasma concentration @ 30 mpk po (4 hr)
inhibition at 100 µM (Cyclooxygenase-1 (Cox-1)) [%],inhibition at 100 µM (Cyclooxygenase-2 (Cox-2)) [%],EC50 (γ-secretase) [nM],"concentration at 4 h [1, 2] [µM]","concentration at 4 h [1, 3] [µM]","IC50 (γ-secretase; comparison compound, read-out: IC50 in the above WTAPP cell assay) [nM]",SMILES,In vivo mouse Aβ42 efficacy @ 30 mpk (4 hr) inhibition (Aβ42) [%]
< 50,< 50,525,6.9 ± 2.3,6.9 ± 12.2,–,"CC(C)C[C@@H](C(=O)O)c1cc(OCc2cc(F)cc(F)c2)cc(-c2ccc(C(F)(F)F)cc2)c1 [Compound 1, (R) 2-[5-(3,5-Difluoro-benzyloxy)-4′-trifluoromethyl-biphenyl-3-yl]-4-methyl-pentanoic acid]",50
–,–,1120,11.1 ± 2.8,11.1 ± 8.9,–,"CC(C)C[C@H](C(=O)O)c1cc(OCc2cc(F)cc(F)c2)cc(-c2ccc(C(F)(F)F)cc2)c1 [Compound 2, (S)-2-[5-(3,5-Difluoro-benzyloxy)-4′-trifluoromethyl-biphenyl-3-yl]-4-methyl-pentanoic acid]",45
–,–,316,5.1 ± 1.1,5.1 ± 2.8,–,"CC(C)C[C@@H](C(=O)O)c1cc(OCc2ccc(F)cc2C(F)(F)F)cc(-c2ccc(C(F)(F)F)cc2)c1 [Compound 3, (R)-2-[5-(4-fluoro-2-trifluoromethyl-benzyloxy)-4′-trifluoromethyl-biphenyl-3-yl]-4-methyl-pentanoic acid]",25
–,–,190,6.5 ± 1.5,6.5 ± 6.3,–,"CC(C)CC(C(=O)O)c1cc(OCc2cc(F)cc(F)c2)cc(-c2ccc(Cl)c(C(F)(F)F)c2)c1 (stereo not shown) [Compound 4, 2-[4′-Chloro-5-(3,5-difluoro-2-benzyloxy)-3′-trifluoromethyl-biphenyl-3-yl]-4-methyl-pentanoic acid]",42
–,–,–,–,–,2500,CCC[C@H](C(=O)O)c1cc(OCc2ccccc2)cc(-c2ccc(C(F)(F)F)cc2)c1 [reference compound],–
